Measurements: US20060251638A1, “Cytoprotection through the use of hif hydroxylase inhibitors” (priority 2003, published 2006)

Assays:
[1] = test system: gene encoding adrenomedullin; assay: Adrenomedullin gene expression in Hep3B cells (microarray); assay type: cell-based, human; conditions: 25 μM compound, 6 hrs, average of two determinations
Protocol: Hep3B cells (ATCC No. HB-8064) were grown in DMEM containing 8% fetal bovine serum. Hep3B cells were seeded into 6-well culture dishes at ˜500,000 cells per well. After 8 hours, the media was changed to DMEM containing 0.5% fetal bovine serum and the cells were incubated for an additional 16 hours. Compound A, compound B, compound C, compound G, or compound H was added to the cells (25 μM final concentration) and the cells were incubated for various times. Control cells were incubated with vehicle (DMSO) with no compound treatment. Harvested cells were assessed for cell viability (GUAVA), or added to RNA extraction buffer (RNeasy, Qiagen) and stored at −20° C. for subsequent RNA purification.
RNA was precipitated in 0.3 M sodium acetate (pH 5.2), 50 ng/ml glycogen, and 2.5 volumes of ethanol for one hour at −20° C. Samples were centrifuged and pellets were washed with cold 80% ethanol, dried, and resuspend in water. Double stranded cDNA was synthesized using a T7-(dT)24 first strand primer (Affymetrix, Inc., Santa Clara Calif.) and the SUPERSCRIPT CHOICE system (Invitrogen) according to the manufacturer's instructions. The final cDNA was extracted with an equal volume of 25:24:1 phenol:chloroform:isoamyl alcohol using a PHASE LOCK GEL insert (Brinkman, Inc., Westbury N.Y.). The aqueous phase was collected and cDNA was precipitated using 0.5 volumes of 7.5 M ammonium acetate and 2.5 volumes of ethanol. Alternatively, cDNA was purified using the GENECHIP sample cleanup module (Affymetrix) according to the manufacturer's instructions.
Biotin-labeled cRNA was synthesized from the cDNA in an in vitro […] (IVT) reaction using a BIOARRAY HighYield RNA transcript labeling kit (Enzo Diagnostics, Inc., Farmingdale N.Y.) according to the manufacturer's instructions. Final labeled product was purified and fragmented using the GENECHIP sample cleanup module (Affymetrix) according to the manufacturer's instructions.
Hybridization cocktail was prepared by bringing 5 μg probe to 100 μl in 1× hybridization buffer (100 mM MES, 1 M [Na^+], 20 mM EDTA, 0.01% Tween 20), 100 μg/ml herring sperm DNA, 500 μg/ml acetylated BSA, 0.03 nM contol oligo B2 (Affymetrix), and 1× GENECHIP eukaryotic hybridization control (Affymetrix). The cocktail was sequentially incubated at 99° C. for 5 minutes and 45° C. for 5 minutes, and then centrifuged for 5 minutes. The […] array (Affymetrix) was brought to room temperature and then prehybridized with 1× hybridization buffer at 45° C. for 10 minutes with rotation. The buffer was then replaced with 80 μl hybridization cocktail and the array was hybridized for 16 hours at 45° C. at 60 rpm with counter balance. Following hybridization, arrays were washed once with 6×SSPE, 0.1% Tween 20, and then washed and stained using R-phycoerythrin-conjugated streptavidin (Molecular Probes, Eugene Oreg.), goat anti-streptavidin antibody (Vector Laboratories, Burlingame Calif.), and a GENECHIP Fluidics Station 400 instrument (Affymetrix) according to the manufacturer's EukGE-WS2v4 protocol (Affymetrix). Arrays were analyzed using a GENEARRAY scanner (Affymetrix) and Microarray Suite software (Affymetrix).
RNA quality was monitored by capillary electrophoresis (Agilent Bioanalyzer). […] Array performance was analyzed with Affymetrix MicroArray Suite (MAS) software and individual probe sets were assigned “present”, “marginal, and “absent” calls according to software defaults. […]

H9c2 rat cardiomyocytes = assay: Intracellular ATP levels in H9c2 cardiomyocytes after oxygen and glucose deprivation (glucose-free DMEM, 2 mM KCN); assay type: cell-based; conditions: H9c2, 20 μM pretreatment 24 hours, glucose-free DMEM and 2 mM KCN for 30 minutes; vehicle control 415
Protocol: In similar experiments, H9c2 rat cardiomyocytes were pretreated with either vehicle control (0.5% DMSO) or 20 μM of Compound A, Compound B, Compound C, Compound D, Compound E, Compound F, Compound G, or compound H. After 24 hours, cells were washed with serum-free DMEM and subjected to oxygen and glucose deprivation by incubating the cells in glucose-free DMEM and 2 mM KCN for 30 minutes. Intracellular ATP levels were then determined.

HO-1 protein = HO-1 protein levels in H9c2 cardiomyocytes by ELISA; assay type: cell-based, rat; conditions: H9c2, 100 μM compound; control 2.86
Protocol: In another series of experiments, H9c2 rat cardiomyocytes were treated with either vehicle control or with various concentrations (1 μM, 3 μM, 10 μM, 30 μM, and 100 μM) of compound C or compound G. Cell lysates were harvested and HO-1 protein levels determined by ELISA according to the manufacturer's instructions (cat # EKS-810; Stressgen, Victoria, BC, Canada). Data shown below in Table 4 represents values obtain with 100 μM compound.

[2] = test system: adrenomedullin gene expression; assay: Adrenomedullin gene expression in H9c2 cardiomyocytes with or without KCN challenge; assay type: cell-based, rat; conditions: H9c2, 10 μM compound 24 hours
Protocol: Adrenomedullin gene expression was also examined in cardiomyocytes treated with compound and subsequently challenged with KCN, an inhibitor of oxidative glucose metabolism. H9c2 rat cardiomyocytes were cultured in 96-well tissue culture plates (approximately 20,000 cells per well) in DMEM containing 10% fetal bovine serum. Media was changed to DMEM containing 0.5% fetal bovine serum, and the cells were treated with 10 μM compound C or compound D for 24 hours. Media was then replaced with glucose-free DMEM (Gibco/Invitrogen Cat. # 11966-025) containing 2 mM KCN (Sigma-Aldrich Cat. No. 207810). Results of adrenomedullin gene expression, presented as fold-increase in gene expression above DMSO control, are shown below in Table 2.

gene encoding HSP70-3 = assay: HSP70-3 mRNA levels in mouse tissues after oral dosing (microarray); assay type: in vivo
Protocol: Twelve Swiss Webster male mice (30-32 g) were obtained from Simonsen, Inc (Gilroy, Calif.) and treated by oral gavage two times per day for 2.5 days (5 doses) with a 4 ml/kg volume of either 0.5% carboxymethyl cellulose (CMC; Sigma-Aldrich, St. Louis Mo.) (0 mg/kg/day) or 2.5% compound H (25 mg/ml in 0.5% CMC) (200 mg/kg/day). Four hours after the final dose, the mice were then sacrificed and approximately 150 mg of liver and each kidney were isolated and stored in RNALATER solution (Ambion) at −20° C.
To determine gene induction patterns over time, twenty four Swiss Webster male mice (30-32 g) were obtained from Simonsen, Inc. and treated by oral gavage with a 4 ml/kg volume of either 0.5% carboxymethyl cellulose (CMC; Sigma-Aldrich, St. Louis Mo.) (0 mg/kg) or […] compound H (25 mg/ml in 0.5% CMC) (100 mg/kg). At 4, 8, 16, 24, 48, or 72 hours after the final dose, animals were anesthetized with isoflurane. The mice were then sacrificed and tissue samples of kidney, liver, brain, lung, and heart were isolated and stored in RNALATER solution (Ambion) at −80° C. RNA isolation and gene expression analysis were performed as described below.
RNA isolation was carried out using the following protocol. A section of each organ was diced, 875 μl of RLT buffer (RNEASY kit; Qiagen Inc., Valencia Calif.) was added, and the pieces were homogenized for about 20 seconds using a rotor-stator POLYTRON homogenizer (Kinematica, Inc., Cincinnati Ohio). […] The RNA was eluted into […] of water and quantitated with RIBOGREEN reagent (Molecular Probes, Eugene Oreg.). The absorbance at 260 and 280 nm was measured to determine RNA purity and concentration.
Alternatively, tissue samples were diced and homogenized in TRIZOL reagent (Invitrogen Life Technologies, Carlsbad Calif.) using a rotor-stator POLYTRON homogenizer (Kinematica). […] The absorbance at 260 and 280 nm was measured to determine RNA purity and concentration. […]

[3] = then glucose-free DMEM with 2 mM KCN
[4] = Animal Study III: mice, oral gavage, 100 mg/kg

Compound | Adrenomedullin gene expression, fold-increase above non-treated control [1] | ATP (relative light units) (H9c2 rat cardiomyocytes) | also measured
O=C(O)c1c[nH]c2c(ccc3cccnc32)c1=O [Compound A, 4-Oxo-1,4-dihydro-[1,10]phenanthroline-3-carboxylic acid] | 3.582 fold | 968.5 relative light units | –
COc1ccc(CCN(CCC(=O)NO)S(=O)(=O)c2ccc(NC(=O)N(Cc3ccccc3)Cc3ccccc3)cc2)cc1 [Compound B, 3-{[4-(3,3-Dibenzyl-ureido)-benzenesulfonyl]-[2-(4-methoxy-phenyl)-ethyl]-amino}-N-hydroxy-propionamide] | 8.334 fold | 683.5 relative light units | –
O=C(O)CNC(=O)c1ncc2cc(Sc3ccccc3)ccc2c1O [Compound C, [(4-Hydroxy-7-phenylsulfanyl-isoquinoline-3-carbonyl)-amino]-acetic acid] | 3.896 fold | 3710 relative light units | HO-1 (ng/mg total cell protein) (HO-1 protein): 102.68 ng/mg total cell protein; Adm gene expression, fold-increase above DMSO control ([2]; no KCN): 4.8 fold; Adm gene expression, fold-increase above DMSO control [2, 3]: 7.9 fold
O=C(O)CNC(=O)c1ncc2ccc(Sc3ccccc3)cc2c1O [Compound D, [(4-Hydroxy-6-phenylsulfanyl-isoquinoline-3-carbonyl)-amino]-acetic acid] | – | 859.5 relative light units | Adm gene expression, fold-increase above DMSO control ([2]; no KCN): 2.2 fold; Adm gene expression, fold-increase above DMSO control [2, 3]: 4.2 fold
O=C(O)CNC(=O)c1nc(Cl)c2cc(Oc3ccccc3)ccc2c1O [Compound E, [(1-Chloro-4-hydroxy-7-phenoxy-isoquinoline-3-carbonyl)-amino]-acetic acid] | – | 2043 relative light units | –
O=C(O)CNC(=O)c1nc(Br)c2cc(Oc3ccccc3)ccc2c1O [Compound F, [(1-Bromo-4-hydroxy-7-phenoxy-isoquinoline-3-carbonyl)-amino]-acetic acid] | – | 1134 relative light units | –
O=C(O)CNC(=O)c1nc(Cl)c2ccccc2c1O [Compound H, [(1-Chloro-4-hydroxy-isoquinoline-3-carbonyl)-amino]-acetic acid] | 1.298 fold | 947 relative light units | HSP70-3 mRNA Levels Liver (gene encoding HSP70-3; Animal Study I: mice, oral gavage two times per day for 2.5 days, 200 mg/kg/day, four hours after final dose): 2.77; HSP70-3 mRNA Levels Liver (gene encoding HSP70-3; [4]): 1.441; HSP70-3 mRNA Levels Lung (gene encoding HSP70-3; [4]): 3.0
